Consider 2 substances from patent US11919965B2, “Methods of treating multiple myeloma with bispecific anti-BCMA x anti-CD3 antibodies” (Regeneron Pharmaceuticals, Inc., priority 2019, dated 2024).

What all share (experiment): Jurkat/NFATLuc reporter bioassay (T-cell activation)
What all share (type): cell-based, human

Experiment [1] deals with Jurkat/NFATLuc.3C7 reporter cells with MOLP-8 cells (BCMA positive). On the procedure: (§1) Activity of the anti-BCMA×anti-CD3 bispecific antibodies were assessed in a Jurkat/NFATLuc reporter bioassay utilizing several cell lines with varying levels of BCMA surface expression. The Jurkat cells were engineered to express an NFAT-luciferase reporter (Jurkat/NFATLuc.3C7), and 50,000 Jurkat reporter cells were combined with 50,000 BCMA positive (Daudi, MM1-S, NCI-H929, OPM-2, RPMI-8226, MOLP-8, or Raji) or BCMA negative (HEK293) cells in Thermo Nunclon delta 96 well white microwell plates (Thermo Scientific, Cat #136102) in 50 ul of assay media (RPMI media with 10% FBS and 1% P/S/G). Three-fold serial dilutions of the BCMA×CD3 bispecific antibodies (mAb25441D or mAb25442D), or a bivalent anti-BCMA antibody (mAb21581) were immediately added in 50 uL of assay buffer. The plates were gently agitated and incubated in a 37° C., 5% CO2 incubator for 4-6 hours. NFAT-Luciferase activity was determined using Promega One-Glo (Cat #E6130) and a Perkin Elmer Envision plate reader. RLU were plotted in GraphPad Prism using a four-parameter logistic equation over a 12-point response curve to calculate EC50 values. The no antibody treatment condition for each dose-response curve is also included in the analysis as a continuation of the three-fold serial dilution and is represented as the lowest dose. The signal to noise (S:N) is determined by taking the ratio of the highest RLU on the curve to the lowest.

The test system of experiment [2] is Jurkat/NFATLuc.3C7 reporter cells with Daudi cells (BCMA positive). On the procedure:
as §1

Experiment [3] deals with Jurkat/NFATLuc.3C7 reporter cells with OPM-2 cells (BCMA positive). The procedure:
as §1

Experiment [4] deals with Jurkat/NFATLuc.3C7 reporter cells with NCI-H929 cells (BCMA positive). On the procedure: as §1

For the substance “REGN5459: anti-BCMA×anti-CD3 bispecific antibody: mAb21581 BCMA heavy chain, mAb7221G20 CD3 heavy chain and common light chain; SEQ ID NOs 126, 128, 129”, the results for the “S:N (highest RLU to lowest)” value in experiment [1] and in experiment [2] were 31 and 25, respectively.
For “REGN5458: anti-BCMA×anti-CD3 bispecific antibody: mAb21581 BCMA heavy chain, mAb7221G CD3 heavy chain and common light chain; SEQ ID NOs 126, 127, 129”, the “S:N (highest RLU to lowest)” value in experiment [3] stood at 8; in experiment [4] it was 39.
